The test system of one assay is HeLa cells. The assay can be described thus: Assay 1 cell proliferation measurement (CTG, 72 h), HeLa. Type of assay: cell-based, human. Particulars: Homo sapiens, HeLa; Assay 1, 72 h, Cell Titer Glo; read-out: HeLa IC50 [nM] (Cervical cancer). The procedure, abridged:
(§1)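 Seed cells, incubate overnight at 37 °C; measure baseline viability (CTG, 0 h plate); dose compound in a 10-step 2.5-fold series (max generally 100 nM final, DMSO 0.3%) for 72 h; read CTG luminescence; fit IC50 with 4 parameters.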
(In general: ATP-based viability assays read luminescence as a measure of living cells.)

The target of the next assay is human full length PDE3A (Homo sapiens (Human), UniProt Q14432). The assay can be described thus: Assay 4 PDE3A enzyme inhibition (3H-cAMP SPA). The class given is biochemical. The following applies: Sf9 cell extract. The method in brief: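 Hydrolysis of [8-3H]cAMP by Sf9-expressed full-length PDE3A was measured by scintillation proximity, with enzyme diluted to keep kinetics linear and substrate consumption below 70%. Incubation ran 60 min at room temperature at pH 7.5.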
human full length PDE3A, sequence (Q14432 whole entry): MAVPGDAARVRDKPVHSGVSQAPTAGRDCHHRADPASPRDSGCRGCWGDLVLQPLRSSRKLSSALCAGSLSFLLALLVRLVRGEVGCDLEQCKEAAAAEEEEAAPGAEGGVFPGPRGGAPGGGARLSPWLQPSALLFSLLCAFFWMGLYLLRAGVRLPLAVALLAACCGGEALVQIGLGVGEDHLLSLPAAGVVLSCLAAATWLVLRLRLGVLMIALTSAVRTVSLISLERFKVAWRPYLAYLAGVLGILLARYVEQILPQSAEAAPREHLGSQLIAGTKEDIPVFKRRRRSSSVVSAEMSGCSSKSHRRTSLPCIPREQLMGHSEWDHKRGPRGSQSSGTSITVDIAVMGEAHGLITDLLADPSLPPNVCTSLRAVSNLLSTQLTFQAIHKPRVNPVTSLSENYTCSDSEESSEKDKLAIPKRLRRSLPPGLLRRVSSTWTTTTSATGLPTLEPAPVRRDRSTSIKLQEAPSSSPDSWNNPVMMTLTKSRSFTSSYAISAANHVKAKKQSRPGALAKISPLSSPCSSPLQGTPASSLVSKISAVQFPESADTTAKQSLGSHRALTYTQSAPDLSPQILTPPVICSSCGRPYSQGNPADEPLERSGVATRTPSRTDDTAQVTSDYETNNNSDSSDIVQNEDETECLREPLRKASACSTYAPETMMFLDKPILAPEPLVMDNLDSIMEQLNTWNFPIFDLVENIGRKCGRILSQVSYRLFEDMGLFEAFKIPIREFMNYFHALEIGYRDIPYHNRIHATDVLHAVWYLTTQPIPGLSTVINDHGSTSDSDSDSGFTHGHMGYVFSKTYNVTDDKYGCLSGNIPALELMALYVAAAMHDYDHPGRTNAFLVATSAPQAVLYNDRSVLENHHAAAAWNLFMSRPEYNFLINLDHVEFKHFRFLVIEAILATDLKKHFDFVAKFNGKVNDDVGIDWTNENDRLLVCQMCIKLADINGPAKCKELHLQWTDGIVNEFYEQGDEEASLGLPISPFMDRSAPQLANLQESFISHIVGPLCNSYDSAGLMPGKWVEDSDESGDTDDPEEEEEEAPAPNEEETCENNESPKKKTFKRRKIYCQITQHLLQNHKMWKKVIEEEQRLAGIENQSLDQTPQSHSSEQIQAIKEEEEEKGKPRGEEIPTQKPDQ

The test system of a further assay is SK-MEL-3 cells. In words: Assay 1 cell proliferation measurement (CTG, 72 h), SK-MEL-3. Particulars: Homo sapiens, SK-MEL3; Assay 1, 72 h, Cell Titer Glo; read-out: SK-MEL-3 IC50 [nM] (melanoma). Type of assay: cell-based, human. The procedure, abridged: as §1
In a further assay the target is human full length PDE3B (Homo sapiens (Human), UniProt Q13370). In words: Assay 5 PDE3B enzyme inhibition (3H-cAMP SPA). Type of assay: biochemical. The following applies: Sf9 cell extract. The method in brief:
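Hydrolysis of tritiated cAMP by Sf9-expressed full-length human PDE3B proceeded 60 min at room temperature in Tris buffer pH 7.5 containing Mg2+, EDTA and BSA, with enzyme dilution keeping substrate consumption below 70%. IC50 derived from percent activity versus log compound concentration.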

Molecules are shown by their SMILES.

human full length PDE3B, sequence (Q13370 whole entry): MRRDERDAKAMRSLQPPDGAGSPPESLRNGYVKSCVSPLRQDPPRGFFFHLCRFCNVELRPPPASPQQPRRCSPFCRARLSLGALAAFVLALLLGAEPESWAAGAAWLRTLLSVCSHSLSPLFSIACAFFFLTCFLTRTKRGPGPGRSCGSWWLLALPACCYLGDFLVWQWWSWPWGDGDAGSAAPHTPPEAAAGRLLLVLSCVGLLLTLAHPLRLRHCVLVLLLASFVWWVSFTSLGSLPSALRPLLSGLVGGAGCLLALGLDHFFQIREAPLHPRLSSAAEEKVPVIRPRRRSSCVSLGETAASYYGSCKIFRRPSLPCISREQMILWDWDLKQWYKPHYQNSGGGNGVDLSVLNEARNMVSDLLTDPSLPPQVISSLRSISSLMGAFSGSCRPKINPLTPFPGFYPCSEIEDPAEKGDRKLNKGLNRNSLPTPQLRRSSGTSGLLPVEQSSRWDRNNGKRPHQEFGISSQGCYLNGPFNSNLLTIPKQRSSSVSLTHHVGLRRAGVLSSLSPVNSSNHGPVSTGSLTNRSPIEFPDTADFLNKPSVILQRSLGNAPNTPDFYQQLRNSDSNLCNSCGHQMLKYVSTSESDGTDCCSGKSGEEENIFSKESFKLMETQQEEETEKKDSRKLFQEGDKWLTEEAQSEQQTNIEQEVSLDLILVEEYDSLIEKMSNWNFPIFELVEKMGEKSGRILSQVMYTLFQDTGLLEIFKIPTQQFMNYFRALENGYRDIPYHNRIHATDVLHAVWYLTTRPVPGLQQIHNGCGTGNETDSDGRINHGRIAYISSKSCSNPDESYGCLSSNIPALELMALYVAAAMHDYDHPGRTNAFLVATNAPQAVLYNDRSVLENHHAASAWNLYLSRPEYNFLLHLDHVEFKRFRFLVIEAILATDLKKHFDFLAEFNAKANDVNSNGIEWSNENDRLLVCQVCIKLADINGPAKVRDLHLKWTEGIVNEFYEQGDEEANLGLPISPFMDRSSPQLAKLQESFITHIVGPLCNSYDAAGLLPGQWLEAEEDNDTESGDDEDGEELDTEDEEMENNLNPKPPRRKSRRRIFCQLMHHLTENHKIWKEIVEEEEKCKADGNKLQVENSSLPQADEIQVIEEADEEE

Turning to `Cc1ccc(-c2ccc(C3=NNC(=O)OC3)cc2C(F)(F)F)cn1` [Example 32, 5-[4-(6-Methylpyridin-3-yl)-3-(trifluoromethyl)phenyl]-3,6-dihydro-2H-1,3,4-oxadiazin-2-one], the IC50 (commonly the concentration that gives 50% inhibition) in the assay with HeLa cells worked out at 5 nM; at human full length PDE3A it was 67 nM; with SK-MEL-3 cells, 7 nM; against human full length PDE3B, 110 nM.

On to `Cc1ncc(-c2ccc(C3=NNC(=O)OC3)cc2F)cn1` [Example 94, 5-[3-Fluoro-4-(2-methylpyrimidin-5-yl)phenyl]-3,6-dihydro-2H-1,3,4-oxadiazin-2-one], for which the IC50 in the assay with HeLa cells worked out at 16 nM; at human full length PDE3A, 91 nM; with SK-MEL-3 cells it was 36 nM; on human full length PDE3B, 280 nM.

Take `COc1nc(C)ccc1-c1ccc(C2=NNC(=O)OC2)cc1C(F)(F)F` [Example 53, 5-[4-(2-Methoxy-6-methylpyridin-3-yl)-3-(trifluoromethyl)phenyl]-3,6-dihydro-2H-1,3,4-oxadiazin-2-one]: the IC50 with HeLa cells amounted to 36 nM; at human full length PDE3A it was 580 nM; in the assay with SK-MEL-3 cells, 13000 nM; against human full length PDE3B, 390 nM.

On to `COCCNc1ccc(C2=NNC(=O)OC2)cc1C(F)(F)F` [Example 222, 5-{4-[(2-Methoxyethyl)amino]-3-(trifluoromethyl)phenyl}-3,6-dihydro-2H-1,3,4-oxadiazin-2-one], for which the IC50 with HeLa cells was 1 nM; against human full length PDE3A, 76 nM; in the assay on SK-MEL-3 cells it was 1 nM; at human full length PDE3B, 120 nM.

For `C[C@@H](O)CCNc1ccc(C2=NNC(=O)OC2)cc1C(F)(F)F` [Example 217, 5-[4-{[(3R)-3-Hydroxybutyl]amino}-3-(trifluoromethyl)phenyl]-3,6-dihydro-2H-1,3,4-oxadiazin-2-one], the IC50 with HeLa cells was determined as 14 nM; against human full length PDE3A, 65 nM; with SK-MEL-3 cells it was 16 nM; on human full length PDE3B it was 210 nM.

Consider `O=C1NN=C(c2ccc(-c3ccc4nccn4c3)c(C(F)(F)F)c2)CO1` [Example 143, 5-[4-(Imidazo[1,2-a]pyridin-6-yl)-3-(trifluoromethyl)phenyl]-3,6-dihydro-2H-1,3,4-oxadiazin-2-one], for which the IC50 was determined as 15 nM in the assay on HeLa cells, 38 nM at human full length PDE3A, 30 nM in the assay on SK-MEL-3 cells and 83 nM against human full length PDE3B.

Consider `CCCCN(C)c1ccc(C2=NNC(=O)OC2)cc1C(F)(F)F` [Example 134, 5-{4-[Butyl(methyl)amino]-3-(trifluoromethyl)phenyl}-3,6-dihydro-2H-1,3,4-oxadiazin-2-one], for which the IC50 in the assay with HeLa cells amounted to 12 nM; against human full length PDE3A it was 270 nM; in the assay on SK-MEL-3 cells it was 26 nM; against human full length PDE3B it was 580 nM.

For the compound `O=C1NN=C(c2ccc(-c3ccccc3)c(F)c2)CO1` [Example 89, 5-(2-Fluorobiphenyl-4-yl)-3,6-dihydro-2H-1,3,4-oxadiazin-2-one], the IC50 in the assay on HeLa cells amounted to 2 nM; against human full length PDE3A, 110 nM; in the assay on SK-MEL-3 cells, 5 nM; at human full length PDE3B it was 140 nM.

Consider `CC(C)(C)/C=C/c1ccc(C2=NNC(=O)OC2)cc1C(F)(F)F` [Example 144, 5-{4-[3,3-Dimethylbut-1-en-1-yl]-3-(trifluoromethyl)phenyl}-3,6-dihydro-2H-1,3,4-oxadiazin-2-one], for which the concentration for half-maximal inhibition (IC50) in the assay on HeLa cells is 6 nM; against human full length PDE3A it was 55 nM; in the assay on SK-MEL-3 cells it was 13 nM; against human full length PDE3B, 100 nM.

Regarding `O=C1NN=C(c2ccc(-c3csc(C(F)(F)F)c3)c(C(F)(F)F)c2)CO1` [Example 145, 5-{3-(Trifluoromethyl)-4-[5-(trifluoromethyl)thiophen-3-yl]phenyl}-3,6-dihydro-2H-1,3,4-oxadiazin-2-one], the IC50 worked out at 27 nM in the assay with HeLa cells, 240 nM on human full length PDE3A, 47 nM in the assay with SK-MEL-3 cells and 410 nM against human full length PDE3B.

For the compound `CCCCCNc1ccc(C2=NNC(=O)OC2)cc1C(F)(F)F` [Example 74, 5-[4-(Pentylamino)-3-(trifluoromethyl)phenyl]-3,6-dihydro-2H-1,3,4-oxadiazin-2-one], the IC50 in the assay on HeLa cells came to 11 nM; on human full length PDE3A, 42 nM; in the assay on SK-MEL-3 cells it was 23 nM; against human full length PDE3B, 100 nM.

Regarding `C[C@@H]1OC(=O)NN=C1c1ccc(-c2ccccc2F)c(C(F)(F)F)c1` [Example 179, (6S)-5-[2′-Fluoro-2-(trifluoromethyl)[1,1′-biphenyl]-4-yl]-6-methyl-3,6-dihydro-2H-1,3,4-oxadiazin-2-one], the IC50 in the assay on HeLa cells is 8 nM; against human full length PDE3A, 140 nM; in the assay on SK-MEL-3 cells, 15 nM; at human full length PDE3B, 110 nM.

`O=C1NN=C(c2ccc(-c3c(F)cccc3F)c(F)c2)CO1` [Example 115, 5-(2,2′,6′-Trifluoro[1,1′-biphenyl]-4-yl)-3,6-dihydro-2H-1,3,4-oxadiazin-2-one]: the IC50 came to 4 nM with HeLa cells, 92 nM on human full length PDE3A, 7 nM with SK-MEL-3 cells and 100 nM against human full length PDE3B.

`CC(C)Nc1ccc(C2=NNC(=O)OC2)cc1C(F)(F)F` [Example 137, 5-[4-(Propan-2-ylamino)-3-(trifluoromethyl)phenyl]-3,6-dihydro-2H-1,3,4-oxadiazin-2-one]: the IC50 came out at 1 nM in the assay with HeLa cells, 52 nM at human full length PDE3A, 3 nM in the assay on SK-MEL-3 cells and 88 nM against human full length PDE3B.

On to `Cc1ccc(-c2ccc(C3=NNC(=O)OC3)cc2C(F)(F)F)cc1N` [Example 42, 5-[3′-Amino-4′-methyl-2-(trifluoromethyl)biphenyl-4-yl]-3,6-dihydro-2H-1,3,4-oxadiazin-2-one], for which the IC50 was determined as 55 nM in the assay with HeLa cells, 170 nM on human full length PDE3A, 64 nM in the assay on SK-MEL-3 cells and 250 nM against human full length PDE3B.

Consider `Nc1ccc(-c2ccc(C3=NNC(=O)OC3)cc2C(F)(F)F)cc1F` [Example 39, 5-[4′-Amino-3′-fluoro-2-(trifluoromethyl)biphenyl-4-yl]-3,6-dihydro-2H-1,3,4-oxadiazin-2-one], for which the IC50 is 4 nM with HeLa cells, 72 nM on human full length PDE3A, 6 nM in the assay with SK-MEL-3 cells and 75 nM against human full length PDE3B.

As to `O=C1NN=C(c2ccc(C3=CCCC3)c(C(F)F)c2)CO1` [Example 201, 5-[4-(Cyclopent-1-en-1-yl)-3-(difluoromethyl)phenyl]-3,6-dihydro-2H-1,3,4-oxadiazin-2-one], the IC50 was found to be 3 nM with HeLa cells, 86 nM on human full length PDE3A, 9 nM with SK-MEL-3 cells and 77 nM against human full length PDE3B.

In the case of `CCN(C)c1ccc(C2=NNC(=O)OC2)cc1C(F)(F)F` [Example 223, 5-{4-[Ethyl(methyl)amino]-3-(trifluoromethyl)phenyl}-3,6-dihydro-2H-1,3,4-oxadiazin-2-one], the IC50 turned out to be 6 nM with HeLa cells, 140 nM against human full length PDE3A, 9 nM in the assay with SK-MEL-3 cells and 100 nM on human full length PDE3B.

With `Cn1cc(-c2ccc(C3=NNC(=O)OC3)cc2C(F)(F)F)cn1` [Example 45, 5-[4-(1-Methyl-1H-pyrazol-4-yl)-3-(trifluoromethyl)phenyl]-3,6-dihydro-2H-1,3,4-oxadiazin-2-one], the half-maximal inhibitory concentration (IC50) came to 3 nM in the assay with HeLa cells, 43 nM against human full length PDE3A, 4 nM with SK-MEL-3 cells and 34 nM against human full length PDE3B.

As for `O=C1NN=C(c2ccc(-c3ccccc3O)c(F)c2)CO1` [Example 106, 5-(2-Fluoro-2′-hydroxy[1,1′-biphenyl]-4-yl)-3,6-dihydro-2H-1,3,4-oxadiazin-2-one], the IC50 in the assay with HeLa cells amounted to 9 nM; on human full length PDE3A, 120 nM; in the assay with SK-MEL-3 cells it was 16 nM; against human full length PDE3B, 240 nM.

In the case of `C[C@@H]1OC(=O)NN=C1c1ccc(-c2cc(F)ccc2F)c(C(F)(F)F)c1` [Example 171, (6S)-5-[2′,5′-Difluoro-2-(trifluoromethyl)[1,1′-biphenyl]-4-yl]-6-methyl-3,6-dihydro-2H-1,3,4-oxadiazin-2-one], the IC50 with HeLa cells came to 18 nM; against human full length PDE3A, 150 nM; in the assay on SK-MEL-3 cells, 31 nM; on human full length PDE3B it was 210 nM.

As to `C[C@@H]1OC(=O)NN=C1c1ccc(Cl)c(C(F)(F)F)c1` [Intermediate 74, (6S)-5-[4-chloro-3-(trifluoromethyl)phenyl]-6-methyl-3,6-dihydro-2H-1,3,4-oxadiazin-2-one], the IC50 was determined as 6 nM in the assay on HeLa cells, 34 nM at human full length PDE3A, 11 nM in the assay on SK-MEL-3 cells and 100 nM on human full length PDE3B.

Take `O=C1NN=C(c2ccc([C@H]3CC[C@@H](O)CC3)c(C(F)(F)F)c2)CO1` [Example 273, (cis)-5-{4-[4-Hydroxycyclohexyl]-3-(trifluoromethyl)phenyl}-3,6-dihydro-2H-1,3,4-oxadiazin-2-one]: the IC50 came out at 1 nM in the assay with HeLa cells, 44 nM at human full length PDE3A, 1 nM with SK-MEL-3 cells and 53 nM against human full length PDE3B.

For `N#Cc1ccc(-c2ccc(C3=NNC(=O)OC3)cc2F)cc1` [Example 101, 2′-Fluoro-4′-(2-oxo-3,6-dihydro-2H-1,3,4-oxadiazin-5-yl)[1,1′-biphenyl]-4-carbonitrile], the IC50 with HeLa cells is 2 nM; on human full length PDE3A, 28 nM; with SK-MEL-3 cells, 4 nM; at human full length PDE3B, 39 nM.

Source of the values: patent US11427553B2, “Dihydrooxadiazinones” (Bayer Aktiengesellschaft, priority 2017, dated 2022).
